Measurements as given in patent US10647713B2 (Nimbus Lakshmi, Inc., priority 2016, dated 2020).

Molecular target: human TYK2 (JH2domain-pseudokinase) (Homo sapiens (Human), UniProt P29597)
Assay: TYK2 JH2 Domain Binding Assay (KINOMEscan, DiscoveRx)
Settings: 11-point dilution, duplicate
Outline: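 TYK2 JH2 (G556–D888)–NFkB DBD fusion, DNA-tagged, from HEK293 extracts (<0.1 nM) competed against immobilised biotinylated ligand for 1 h at room temperature, 0.9% DMSO. Bead-retained kinase quantified by qPCR; Kd from 11-point 3-fold series (top 30,000 nM, duplicate), Hill fit with slope −1.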

Sequence of human TYK2 (JH2domain-pseudokinase) (P29597 556-888): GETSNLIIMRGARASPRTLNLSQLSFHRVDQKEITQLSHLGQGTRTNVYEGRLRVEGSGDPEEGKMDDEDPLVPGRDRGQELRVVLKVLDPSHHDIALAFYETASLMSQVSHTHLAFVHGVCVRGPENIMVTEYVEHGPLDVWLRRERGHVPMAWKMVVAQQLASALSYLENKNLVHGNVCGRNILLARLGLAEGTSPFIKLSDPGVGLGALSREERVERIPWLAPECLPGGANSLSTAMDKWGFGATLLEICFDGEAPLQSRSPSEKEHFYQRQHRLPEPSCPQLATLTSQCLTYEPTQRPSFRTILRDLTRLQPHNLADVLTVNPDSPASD

Structure (SMILES)	Kd [nM]
CS(=O)(=O)c1cc([C@@H]2CCCCO2)ccc1Nc1cc(NC(=O)C2CC2(F)F)nc2[nH]c(C(F)F)nc12 (stereo partly drawn) [I-325, N-(2-(difluoromethyl)-7-((2-(methylsulfonyl)-4-((S)-tetrahydro-2H-pyran-2-yl)phenyl)amino)-3H-imidazo[4,5-b]pyridin-5-yl)-2,2-difluorocyclopropane-1-carboxamide]	0.5 to 1
CS(=O)(=O)c1cc([C@H]2CCCCO2)ccc1Nc1cc(NC(=O)[C@H]2CC2(F)F)nc2[nH]c(C(F)F)nc12 [I-326, N-(2-(difluoromethyl)-7-((2-(methylsulfonyl)-4-((R)-tetrahydro-2H-pyran-2-yl)phenyl)amino)-3H-imidazo[4,5-b]pyridin-5-yl)-2,2-difluorocyclopropane-1-carboxamide]	1 to 10
CS(=O)(=O)c1cc([C@@H]2CCCO2)ccc1Nc1cc(NC(=O)C2CC2(F)F)nc2[nH]c(C(F)F)nc12 (stereo partly drawn) [I-327, N-(2-(difluoromethyl)-7-((2-(methylsulfonyl)-4-((S)-tetrahydrofuran-2-yl)phenyl)amino)-3H-imidazo[4,5-b]pyridin-5-yl)-2,2-difluorocyclopropane-1-carboxamide]	0.1 to 0.5
CS(=O)(=O)c1cc([C@H]2CCCO2)ccc1Nc1cc(NC(=O)C2CC2(F)F)nc2[nH]c(C(F)F)nc12 (stereo partly drawn) [I-329, N-(2-(difluoromethyl)-7-((2-(methylsulfonyl)-4-((R)-tetrahydrofuran-2-yl)phenyl)amino)-3H-imidazo[4,5-b]pyridin-5-yl)-2,2-difluorocyclopropane-1-carboxamide]	1 to 10
Cc1nc2c(Nc3ccc(C4CCC(C)(C)O4)cc3S(C)(=O)=O)cc(NC(=O)C3CC3)nc2[nH]1 (stereo not shown) [I-330, N-(7-((4-(5,5-dimethyltetrahydrofuran-2-yl)-2-(methylsulfonyl)phenyl)amino)-2-methyl-3H-imidazo[4,5-b]pyridin-5-yl)cyclopropanecarboxamide]	0.1 to 0.5
CC1(C)CCC(c2ccc(Nc3cc(NC(=O)C4CC4)nc4[nH]c(C(F)F)nc34)c(S(C)(=O)=O)c2)O1 (stereo not shown) [I-332]	0.1 to 0.5
C[S+]([O-])c1ccccc1Nc1cc(NC(=O)C2CC2)nc2[nH]c(C(F)F)nc12 (stereo not shown) [I-333, N-(2-(difluoromethyl)-7-((2-(methylsulfinyl)phenyl)amino)-3H-imidazo[4,5-b]pyridin-5-yl)cyclopropanecarboxamide]	1 to 10
Cc1nc2c(Nc3ccc(C4CCCO4)cc3S(C)(=O)=O)cc(NC(=O)C3CC3)nc2[nH]1 (stereo not shown) [I-334, N-(2-methyl-7-((2-(methylsulfonyl)-4-(tetrahydrofuran-2-yl)phenyl)amino)-3H-imidazo[4,5-b]pyridin-5-yl)cyclopropanecarboxamide]	< 0.1
CS(=O)(=O)c1cc(C2CCCO2)ccc1Nc1cc(NC(=O)C2CC2)nc2[nH]c(C(F)F)nc12 (stereo not shown) [I-335, N-(2-(difluoromethyl)-7-((2-(methylsulfonyl)-4-(tetrahydrofuran-2-yl)phenyl)amino)-3H-imidazo[4,5-b]pyridin-5-yl)cyclopropanecarboxamide]	> 10
Cc1nc2c(Nc3ccccc3[S+](C)[O-])cc(NC(=O)C3CC3)nc2[nH]1 (stereo not shown) [I-336, N-(2-methyl-7-((2-(methylsulfinyl)phenyl)amino)-3H-imidazo[4,5-b]pyridin-5-yl)cyclopropanecarboxamide]	1 to 10
Cc1nc2c(Nc3ccc(C4=NC(C)(C)CS4)cc3S(C)(=O)=O)cc(NC(=O)C3CC3(F)F)nc2[nH]1 (stereo not shown) [I-346]	> 10
COc1c(Nc2cc(Nc3cccc(C#N)n3)nc3[nH]c(C(F)F)nc23)cccc1-c1nc(C)cs1 [I-349]	1 to 10
CC1(C)CSC(c2ccc(Nc3cc(NC(=O)C4CC4(F)F)nc4[nH]c(C(F)F)nc34)c(S(C)(=O)=O)c2)=N1 (stereo not shown) [I-351, N-(2-(difluoromethyl)-7-((4-(4,4-dimethyl-4,5-dihydrothiazol-2-yl)-2-(methylsulfonyl)phenyl)amino)-3H-imidazo[4,5-b]pyridin-5-yl)-2,2-difluorocyclopropane-1-carboxamide]	> 10
CC1(C)CC[C@H](c2ccc(Nc3cc(NC(=O)C4CC4)nc4[nH]c(C(F)F)nc34)c(S(C)(=O)=O)c2)OC1 [I-354]	1 to 10
Cc1nc2c(Nc3ccc(C4CC(C)(C)OC(C)(C)C4)cc3S(C)(=O)=O)cc(NC(=O)C3CC3)nc2[nH]1 [I-357]	1 to 10

Other lines, results leading:

Kd [nM]	Structure (SMILES)
1 to 10	COc1c(Nc2cc(NC(=O)C3CC3)nc3[nH]c(C(F)F)nc23)cccc1-c1nc(C)cs1 [I-320, N-(2-(difluoromethyl)-7-((2-methoxy-3-(4-methylthiazol-2-yl)phenyl)amino)-3H-imidazo[4,5-b]pyridin-5-yl)cyclopropanecarboxamide]
1 to 10	COc1c(Nc2cc(NC(=O)C3CC3)nc3[nH]c(C)nc23)cccc1-c1nc(C)cs1 [I-321, N-(7-((2-methoxy-3-(4-methylthiazol-2-yl)phenyl)amino)-2-methyl-3H-imidazo[4,5-b]pyridin-5-yl)cyclopropanecarboxamide]
0.1 to 0.5	Cn1cnc(-c2ccc(Nc3cc(NC(=O)[C@@H]4C[C@@H]4F)nc4[nH]c(C(F)F)nc34)c(S(C)(=O)=O)c2)c1 [I-322, (1S,2S)—N-(2-(difluoromethyl)-7-((4-(1-methyl-1H-imidazol-4-yl)-2-(methylsulfonyl)phenyl)amino)-3H-imidazo[4,5-b]pyridin-5-yl)-2-fluorocyclopropane-1-carboxamide]
0.1 to 0.5	Cc1nc2c(Nc3ccc([C@@H]4CCCCO4)cc3S(C)(=O)=O)cc(NC(=O)[C@H]3CC3(F)F)nc2[nH]1 [I-323, 2,2-difluoro-N-(2-methyl-7-((2-(methylsulfonyl)-4-((S)-tetrahydro-2H-pyran-2-yl)phenyl)amino)-3H-imidazo[4,5-b]pyridin-5-yl)cyclopropane-1-carboxamide]
0.1 to 0.5	CN=S(C)(=O)c1ccccc1Nc1cc(NC(=O)C2CC2)nc2[nH]c(C)nc12 (stereo not shown) [I-328, N-(7-((2-(N,S-dimethylsulfonimidoyl)phenyl)amino)-2-methyl-3H-imidazo[4,5-b]pyridin-5-yl)cyclopropanecarboxamide]
0.1 to 0.5	Cc1c(-c2ccc(Nc3cc(NC(=O)C4CC4(F)F)nc4[nH]c(C(F)F)nc34)c(S(C)(=O)=O)c2)cnn1C (stereo not shown) [I-331, N-(2-(difluoromethyl)-7-((4-(1,5-dimethyl-1H-pyrazol-4-yl)-2-(methylsulfonyl)phenyl)amino)-3H-imidazo[4,5-b]pyridin-5-yl)-2,2-difluorocyclopropane-1-carboxamide]
1 to 10	CS(=O)(=O)c1cc(C2CCOCC2)ccc1Nc1cc(NC(=O)C2CC2(F)F)nc2[nH]c(C(F)F)nc12 (stereo not shown) [I-337, N-(2-(difluoromethyl)-7-((2-(methylsulfonyl)-4-(tetrahydro-2H-pyran-4-yl)phenyl)amino)-3H-imidazo[4,5-b]pyridin-5-yl)-2,2-difluorocyclopropane-1-carboxamide]
1 to 10	Cc1cc(-c2ccc(Nc3cc(NC(=O)C4CC4(F)F)nc4[nH]c(C(F)F)nc34)c(S(C)(=O)=O)c2)nn1C (stereo not shown) [I-338, N-(2-(difluoromethyl)-7-((4-(1,5-dimethyl-1H-pyrazol-3-yl)-2-(methylsulfonyl)phenyl)amino)-3H-imidazo[4,5-b]pyridin-5-yl)-2,2-difluorocyclopropane-1-carboxamide]
1 to 10	Cc1nc2c(Nc3ccc(C4=NC(C)(C)CO4)cc3S(C)(=O)=O)cc(NC(=O)[C@H]3C[C@H]3F)nc2[nH]1 [I-339, (1R,2R)—N-(7-((4-(4,4-dimethyl-4,5-dihydrooxazol-2-yl)-2-(methylsulfonyl)phenyl)amino)-2-methyl-3H-imidazo[4,5-b]pyridin-5-yl)-2-fluorocyclopropane-1-carboxamide]
0.5 to 1	Cc1nc2c(Nc3ccc([C@H]4CCCO4)cc3S(C)(=O)=O)cc(NC(=O)C3CC3(F)F)nc2[nH]1 (stereo partly drawn) [I-340, 2,2-difluoro-N-(2-methyl-7-((2-(methylsulfonyl)-4-((R)-tetrahydrofuran-2-yl)phenyl)amino)-3H-imidazo[4,5-b]pyridin-5-yl)cyclopropane-1-carboxamide]
0.1 to 0.5	Cc1cnc(-c2ccc(Nc3cc(Nc4cccc(C#N)n4)nc4[nH]c(C(F)F)nc34)c(S(C)(=O)=O)c2)n1C [I-341]
0.1 to 0.5	Cc1nc2c(Nc3ccc(-c4c(C)nn(C)c4C)cc3S(C)(=O)=O)cc(Nc3cnc(C)c(C)n3)nc2[nH]1 [I-342]
0.1 to 0.5	Cc1ncc(Nc2cc(Nc3ccc(-c4c(C)nn(C)c4C)cc3S(C)(=O)=O)c3nc(C(F)F)[nH]c3n2)nc1C [I-343]
0.1 to 0.5	Cc1cc(Nc2cc(Nc3ccc(-c4c(C)nn(C)c4C)cc3S(C)(=O)=O)c3nc(C)[nH]c3n2)nc(C)n1 [I-344]
0.1 to 0.5	Cc1cc(Nc2cc(Nc3ccc(-c4c(C)nn(C)c4C)cc3S(C)(=O)=O)c3nc(C(F)F)[nH]c3n2)nc(C)n1 [I-345]
0.1 to 0.5	Cc1nn(C)c(C)c1-c1ccc(Nc2cc(Nc3cccc(C#N)n3)nc3[nH]c(C(F)F)nc23)c(S(C)(=O)=O)c1 [I-347]
0.1 to 0.5	Cc1nc2c(Nc3ccc([C@@H]4CCCO4)cc3S(C)(=O)=O)cc(NC(=O)C3CC3(F)F)nc2[nH]1 (stereo partly drawn) [I-348, 2,2-difluoro-N-(2-methyl-7-((2-(methylsulfonyl)-4-((S)-tetrahydrofuran-2-yl)phenyl)amino)-3H-imidazo[4,5-b]pyridin-5-yl)cyclopropane-1-carboxamide]
0.1 to 0.5	Cc1c(-c2ccc(Nc3cc(NC(=O)C4CC4)nc4[nH]c(C(F)F)nc34)c(S(C)(=O)=O)c2)nn(C)c1C [I-350]
0.1 to 0.5	Cc1nc2c(Nc3ccc(-c4ncc(C)n4C)cc3S(C)(=O)=O)cc(Nc3cccc(C#N)n3)nc2[nH]1 [I-352]
0.1 to 0.5	CC1(C)CC[C@@H](c2ccc(Nc3cc(NC(=O)C4CC4)nc4[nH]c(C(F)F)nc34)c(S(C)(=O)=O)c2)OC1 [I-353]
0.1 to 0.5	Cc1nc2c(Nc3ccc(-c4c(C)nn(C)c4C)cc3S(C)(=O)=O)cc(Nc3cccc(C#N)n3)nc2[nH]1 [I-355]
0.1 to 0.5	CC1(C)CCC(c2ccc(Nc3cc(NC(=O)C4CC4)nc4[nH]c(C(F)F)nc34)c(S(C)(=O)=O)c2)OC1 (stereo not shown) [I-356]
